The target of the assay is human JAK1 (a.a. 837-1142). Description: In vitro JAK kinase assay (HTRF, phosphorylation of a biotinylated peptide), JAK1. Type of assay: biochemical. Particulars: measured at 1 mM ATP; JAK2 IC50 / JAK1 IC50. A digest of the protocol: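 Phosphorylation of a biotinylated peptide by purified His-tagged JAK catalytic domains (insect-cell baculovirus expression) ran 1 hr at room temperature. After stopping with EDTA, Eu-Py20 and SA-APC were bound for 40 minutes and HTRF measured.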
Background: In TR-FRET formats the signal depends on donor and acceptor labels being close together.
As to `N#CCC1(n2cc(-c3ncnc4[nH]ccc34)cn2)CN(C2CCN(Cc3cccc(Cl)c3Cl)CC2)C1` [Example 219, {1-[1-(2,3-dichlorobenzyl)piperidin-4-yl]-3-[4-(7H-pyrrolo[2,3-d]pyrimidin-4-yl)-1H-pyrazol-1-yl]azetidin-3-yl}acetonitrile], the “IC50 Ratio JAK2/JAK1” value is on record as 2.4. Turning to `N#CCC1(n2cc(-c3ncnc4[nH]ccc34)cn2)CN(C2CCN(Cc3ccc(F)c(C#N)c3)CC2)C1` [Example 220, 5-[(4-{3-(cyanomethyl)-3-[4-(7H-pyrrolo[2,3-d]pyrimidin-4-yl)-1H-pyrazol-1-yl]azetidin-1-yl}piperidin-1-yl)methyl]-2-fluorobenzonitrile], the “IC50 Ratio JAK2/JAK1” value was 4.4. `N#CCC1(n2cc(-c3ncnc4[nH]ccc34)cn2)CN(C2CCN(Cc3ccc(-c4conn4)cc3)CC2)C1` [Example 221, {1-{1-[4-(1,2,3-oxadiazol-4-yl)benzyl]piperidin-4-yl}-3-[4-(7H-pyrrolo[2,3-d]pyrimidin-4-yl)-1H-pyrazol-1-yl]azetidin-3-yl}acetonitrile]: the “IC50 Ratio JAK2/JAK1” value was determined as 1.3. Next, `N#CCC1(n2cc(-c3ncnc4[nH]ccc34)cn2)CN(C2CCN(Cc3cccc(C#N)c3)CC2)C1` [Example 223, 3-[(4-{3-(cyanomethyl)-3-[4-(7H-pyrrolo[2,3-d]pyrimidin-4-yl)-1H-pyrazol-1-yl]azetidin-1-yl}piperidin-1-yl)methyl]benzonitrile]: 5.9; `COc1nc(CN2CCC(N3CC(CC#N)(n4cc(-c5ncnc6[nH]ccc56)cn4)C3)CC2)ccc1C#N` [Example 224, 6-[(4-{3-(cyanomethyl)-3-[4-(7H-pyrrolo[2,3-d]pyrimidin-4-yl)-1H-pyrazol-1-yl]azetidin-1-yl}piperidin-1-yl)methyl]-2-methoxynicotinonitrile]: 2.4. In the case of `N#CCC1(n2cc(-c3ncnc4[nH]ccc34)cn2)CN(C2CCN(Cc3cc(Br)nc(Br)c3)CC2)C1` [Example 225, {1-{1-[(2,6-dibromopyridin-4-yl)methyl]piperidin-4-yl}-3-[4-(7H-pyrrolo[2,3-d]pyrimidin-4-yl)-1H-pyrazol-1-yl]azetidin-3-yl}acetonitrile] it was 3.8; in that of `N#CCC1(n2cc(-c3ncnc4[nH]ccc34)cn2)CN(C2CCN(Cc3ccnc(Br)c3)CC2)C1` [Example 226, {1-{1-[(2-bromopyridin-4-yl)methyl]piperidin-4-yl}-3-[4-(7H-pyrrolo[2,3-d]pyrimidin-4-yl)-1H-pyrazol-1-yl]azetidin-3-yl}acetonitrile], 1.9. In the case of `N#CCC1(n2cc(-c3ncnc4[nH]ccc34)cn2)CN(C2CCN(Cc3c(F)cccc3Cl)CC2)C1` [Example 227, {1-[1-(2-chloro-6-fluorobenzyl)piperidin-4-yl]-3-[4-(7H-pyrrolo[2,3-d]pyrimidin-4-yl)-1H-pyrazol-1-yl]azetidin-3-yl}acetonitrile], the “IC50 Ratio JAK2/JAK1” value came to 7.9. In the case of `N#CCC1(n2cc(-c3ncnc4[nH]ccc34)cn2)CN(C2CCN(Cc3c(F)ccc(Cl)c3F)CC2)C1` [Example 228, {1-[1-(3-chloro-2,6-difluorobenzyl)piperidin-4-yl]-3-[4-(7H-pyrrolo[2,3-d]pyrimidin-4-yl)-1H-pyrazol-1-yl]azetidin-3-yl}acetonitrile] it was 3.9; in that of `N#CCC1(n2cc(-c3ncnc4[nH]ccc34)cn2)CN(C2CCN(Cc3ccc(C#N)c(F)c3)CC2)C1` [Example 229, 4-[(4-{3-(cyanomethyl)-3-[4-(7H-pyrrolo[2,3-d]pyrimidin-4-yl)-1H-pyrazol-1-yl]azetidin-1-yl}piperidin-1-yl)methyl]-2-fluorobenzonitrile], 6.4; in that of `Cc1onc(-c2ccccc2)c1CN1CCC(N2CC(CC#N)(n3cc(-c4ncnc5[nH]ccc45)cn3)C2)CC1` [Example 230, {1-{1-[(5-methyl-3-phenylisoxazol-4-yl)methyl]piperidin-4-yl}-3-[4-(7H-pyrrolo[2,3-d]pyrimidin-4-yl)-1H-pyrazol-1-yl]azetidin-3-yl}acetonitrile], 9.3.

With `N#CCC1(n2cc(-c3ncnc4[nH]ccc34)cn2)CN(C2CCN(Cc3ccnc(C(F)(F)F)c3F)CC2)C1` [Example 231, {1-(1-{[3-fluoro-2-(trifluoromethyl)pyridin-4-yl]methyl}piperidin-4-yl)-3-[4-(7H-pyrrolo[2,3-d]pyrimidin-4-yl)-1H-pyrazol-1-yl]azetidin-3-yl}acetonitrile], the “IC50 Ratio JAK2/JAK1” value came to 5.1. As for `N#CCC1(n2cc(-c3ncnc4[nH]ccc34)cn2)CN(C2CCN(Cc3cc4ccccc4o3)CC2)C1` [Example 232, {1-[1-(1-benzofuran-2-ylmethyl)piperidin-4-yl]-3-[4-(7H-pyrrolo[2,3-d]pyrimidin-4-yl)-1H-pyrazol-1-yl]azetidin-3-yl}acetonitrile], the “IC50 Ratio JAK2/JAK1” value was found to be 0.7. For the compound `N#CCC1(n2cc(-c3ncnc4[nH]ccc34)cn2)CN(C2CCN(Cc3cccc(Oc4ccccc4)c3)CC2)C1` [Example 233, {1-[1-(3-phenoxybenzyl)piperidin-4-yl]-3-[4-(7H-pyrrolo[2,3-d]pyrimidin-4-yl)-1H-pyrazol-1-yl]azetidin-3-yl}acetonitrile], the “IC50 Ratio JAK2/JAK1” value is on record as 2.2. In the case of `N#CCC1(n2cc(-c3ncnc4[nH]ccc34)cn2)CN(C2CCN(Cc3ccc4c(c3)OCCO4)CC2)C1` [Example 234, {1-[1-(2,3-dihydro-1,4-benzodioxin-6-ylmethyl)piperidin-4-yl]-3-[4-(7H-pyrrolo[2,3-d]pyrimidin-4-yl)-1H-pyrazol-1-yl]azetidin-3-yl}acetonitrile] it was 4.2; in that of `N#CCC1(n2cc(-c3ncnc4[nH]ccc34)cn2)CN(C2CCN(Cc3c(C(F)(F)F)ccc(Cl)c3F)CC2)C1` [Example 236, {1-{1-[3-chloro-2-fluoro-6-(trifluoromethyl)benzyl]piperidin-4-yl}-3-[4-(7H-pyrrolo[2,3-d]pyrimidin-4-yl)-1H-pyrazol-1-yl]azetidin-3-yl}acetonitrile], 5.5. Next, `N#CCC1(n2cc(-c3ncnc4[nH]ccc34)cn2)CN(C2CCN(Cc3c(Cl)cncc3Cl)CC2)C1` [Example 237, {1-{1-[(3,5-dichloropyridin-4-yl)methyl]piperidin-4-yl}-3-[4-(7H-pyrrolo[2,3-d]pyrimidin-4-yl)-1H-pyrazol-1-yl]azetidin-3-yl}acetonitrile]: 2.3; `COc1ccc2nc(Cl)c(CN3CCC(N4CC(CC#N)(n5cc(-c6ncnc7[nH]ccc67)cn5)C4)CC3)cc2c1` [Example 238, {1-{1-[(2-chloro-6-methoxyquinolin-3-yl)methyl]piperidin-4-yl}-3-[4-(7H-pyrrolo[2,3-d]pyrimidin-4-yl)-1H-pyrazol-1-yl]azetidin-3-yl}acetonitrile]: 6.8.

`COc1ccc(CN2CCC(N3CC(CC#N)(n4cc(-c5ncnc6[nH]ccc56)cn4)C3)CC2)c(Cl)c1OC` [Example 239, {1-[1-(2-chloro-3,4-dimethoxybenzyl)piperidin-4-yl]-3-[4-(7H-pyrrolo[2,3-d]pyrimidin-4-yl)-1H-pyrazol-1-yl]azetidin-3-yl}acetonitrile]: the “IC50 Ratio JAK2/JAK1” value came to 2.3. In the case of `N#CCC1(n2cc(-c3ncnc4[nH]ccc34)cn2)CN(C2CC3CCC(C2)N3Cc2c(F)ccc(F)c2Cl)C1` (centres unmarked) [Example 241, {1-[8-(2-Chloro-3,6-difluorobenzyl)-8-azabicyclo[3.2.1]oct-3-yl]-3-[4-(7H-pyrrolo[2,3-d]pyrimidin-4-yl)-1H-pyrazol-1-yl]azetidin-3-yl}acetonitrile], the “IC50 Ratio JAK2/JAK1” value amounted to 3.8. Take `CC1CC(N2CC(CC#N)(n3cc(-c4ncnc5[nH]ccc45)cn3)C2)CCN1Cc1c(F)cccc1Cl` (centres unmarked) [Example 245, {1-[1-(2-chloro-6-fluorobenzyl)-2-methylpiperidin-4-yl]-3-[4-(7H-pyrrolo[2,3-d]pyrimidin-4-yl)-1H-pyrazol-1-yl]azetidin-3-yl}acetonitrile]: the “IC50 Ratio JAK2/JAK1” value is listed as 1.5. Next, `Cn1nccc1S(=O)(=O)N1CCC(N2CC(CC#N)(n3cc(-c4ncnc5[nH]ccc45)cn3)C2)CC1` [Example 246, {1-{1-[(1-Methyl-1H-pyrazol-5-yl)sulfonyl]piperidin-4-yl}-3-[4-(7H-pyrrolo[2,3-d]pyrimidin-4-yl)-1H-pyrazol-1-yl]azetidin-3-yl}acetonitrile]: 7.5.

Consider `N#CCC1(n2cc(-c3ncnc4[nH]ccc34)cn2)CN(C2CCN(S(=O)(=O)c3ccccc3C#N)CC2)C1` [Example 247, 2-[(4-{3-(cyanomethyl)-3-[4-(7H-pyrrolo[2,3-d]pyrimidin-4-yl)-1H-pyrazol-1-yl]azetidin-1-yl}piperidin-1-yl)sulfonyl]benzonitrile], for which the “IC50 Ratio JAK2/JAK1” value was 5.1. For `N#CCC1(n2cc(-c3ncnc4[nH]ccc34)cn2)CN(C2CCN(S(=O)(=O)c3cccc(C#N)c3)CC2)C1` [Example 248, 3-[(4-{3-(cyanomethyl)-3-[4-(7H-pyrrolo[2,3-d]pyrimidin-4-yl)-1H-pyrazol-1-yl]azetidin-1-yl}piperidin-1-yl)sulfonyl]benzonitrile], the “IC50 Ratio JAK2/JAK1” value turned out to be 5.2. In the case of `N#CCC1(n2cc(-c3ncnc4[nH]ccc34)cn2)CN(C2CCN(S(=O)(=O)c3ccc(C#N)cc3)CC2)C1` [Example 249, 4-[(4-{3-(cyanomethyl)-3-[4-(7H-pyrrolo[2,3-d]pyrimidin-4-yl)-1H-pyrazol-1-yl]azetidin-1-yl}piperidin-1-yl)sulfonyl]benzonitrile] it was 2.1. Next, `CN(C)c1ccc(S(=O)(=O)N2CCC(N3CC(CC#N)(n4cc(-c5ncnc6[nH]ccc56)cn4)C3)CC2)cc1C#N` [Example 250, 5-[(4-{3-(cyanomethyl)-3-[4-(7H-pyrrolo[2,3-d]pyrimidin-4-yl)-1H-pyrazol-1-yl]azetidin-1-yl}piperidin-1-yl)sulfonyl]-2-(dimethylamino)benzonitrile]: 4.7.

The record behind these values is patent US10695337B2, “Piperidin-4-yl azetidine derivatives as JAK1 inhibitors” (Incyte Corporation, priority 2010, dated 2020).
